Like-named read-outs stand apart in the source and are kept apart here.
Key:
[1] = logP (acidic, pH 2.3, and neutral); type: physicochemical; details: for logP: read-out: logP neutr.
Uromyces appendiculatus = test: Uromyces test (bean) / protective; type: in vivo; details: 10ppm active ingredient, evaluated 10 days after inoculation, 0 % = control, 100 % = no infestation
Excerpt: (§1) Zur Herstellung einer zweckmäßigen Wirkstoffzubereitung vermischt man 1 Gewichtsteil Wirkstoff mit den angegebenen Mengen Lösungsmittel und Emulgator und verdünnt das Konzentrat mit Wasser auf die gewünschte Konzentration.
Zur Prüfung auf protektive Wirksamkeit werden junge Pflanzen mit der Wirkstoffzubereitung in der angegebenen Aufwandmenge besprüht. Nach Antrocknen des Spritzbelages werden die Pflanzen mit einer wäßrigen Sporensuspension des Bohnenrosterregers Uromyces appendiculatus inokuliert und verbleiben dann 1 Tag bei ca. 20°C und 100% relativer Luftfeuchtigkeit in einer Inkubations-kabine.
Die Pflanzen werden dann im Gewächshaus bei ca. 21°C und einer relativen Luftfeuchtigkeit von ca. 90% aufgestellt.
(§2) 10 Tage nach der Inokulation erfolgt die Auswertung. Dabei bedeutet 0% ein Wirkungsgrad, der demjenigen der Kontrolle entspricht, während ein Wirkungsgrad von 100% bedeutet, daß kein Befall beobachtet wird.

Leptosphaeria nodorum = Leptosphaeria nodorum test (wheat) / protective; type: in vivo; details: 500 ppm active ingredient, evaluated 12-14 days after inoculation, 0 % = control, 100 % = no infestation
Excerpt: as §1
Zur Prüfung auf protektive Wirksamkeit bespritzt man junge Weizenpflanzen mit der Wirkstoffzubereitung in der angegebenen Aufwandmenge. 1 Tag nach der Behandlung werden die Pflanzen mit einer wäßrigen Sporensuspension von Leptosphaeria nodorum inokuliert und verbleiben dann 48h bei 100% rel. Luftfeuchte und 20°C. Anschließend werden die Pflanzen in einem Gewächshaus bei 80 % rel. Luftfeuchtigkeit und einer Temperatur von 22°C aufgestellt.
12-14 Tage nach der Inokulation erfolgt die Auswertung. Dabei bedeutet 0 % ein Wirkungsgrad, der demjenigen der Kontrolle entspricht, während ein Wirkungsgrad von 100 % bedeutet, dass kein Befall beobachtet wird.

[2] = tested on: Erysiphe graminis f. sp. hordei; test: Erysiphe test (barley) / protective; type: in vivo; details: Blumeria graminis, 168 h, 500 ppm active ingredient, evaluated 7 days after inoculation, 0 % = control, 100 % = no infestation, read-out: Wirkungsgrad
Excerpt: as §1
Zur Prüfung auf protektive Wirksamkeit bespritzt man junge Getreidepflanzen mit der Wirkstoffzubereitung in der angegebenen Aufwandmenge. 1 Tag nach der Behandlung werden die Pflanzen mit Sporen von Erysiphe graminis f. sp. hordei inokuliert. Anschließend werden die Pflanzen in einem Gewächshaus bei 70 % relativer Luftfeuchtigkeit und einer Temperatur von 18°C aufgestellt.
7 Tage nach der Inokulation erfolgt die Auswertung. Dabei bedeutet 0 % ein Wirkungsgrad, der demjenigen der Kontrolle entspricht, während ein Wirkungsgrad von 100 % bedeutet, daß kein Befall beobachtet wird.

Podosphaera leucotricha = test: Podosphaera test (apple) / protective; type: in vivo; details: 240 h, 100 ppm active ingredient, evaluated 10 days after inoculation, 0 % = control, 100 % = no infestation, read-out: Wirkungsgrad
Excerpt: as §1
(§3) Zur Prüfung auf protektive Wirksamkeit werden junge Pflanzen mit der Wirkstoffzubereitung in der angegebenen Aufwandmenge besprüht. Nach Antrocknen des Spritzbelages werden die Pflanzen mit einer wäßrigen Sporensuspension des Apfelmehltauerregers Podosphaera leucotricha inokuliert. Die Pflanzen werden dann im Gewächshaus bei ca. 23°C und einer relativen Luftfeuchtigkeit von ca. 70% aufgestellt.
as §2

Puccinia recondita = test: Puccinia test (wheat) / protective; type: in vivo; details: 240 h, 1000 ppm active ingredient, protective spray, evaluated 10 days after inoculation, 0 % = control, 100 % = no infestation, read-out: Wirkungsgrad
Excerpt: as §1
Zur Prüfung auf protektive Wirksamkeit werden junge Pflanzen mit der Wirkstoffzubereitung in der angegebenen Aufwandmenge besprüht. Nach Antrocknen des Spritzbelages werden die Pflanzen mit einer Konidiensuspension von Puccinia recondita besprüht. Die Pflanzen verbleiben 48 Stunden bei 20°C und 100 % relativer Luftfeuchtigkeit in einer Inkubationskabine.
Die Pflanzen werden dann in einem Gewächshaus bei einer Temperatur von ca. 20°C und einer relativen Luftfeuchtigkeit von 80 % aufgestellt, um die Entwicklung von Rostpusteln zu begünstigen.
10 Tage nach der Inokulation erfolgt die Auswertung. Dabei bedeutet 0 % ein Wirkungsgrad, der demjenigen der Kontrolle entspricht, während ein Wirkungsgrad von 100 % bedeutet, daß kein Befall beobachtet wird.

Sphaerotheca fuliginea = test: Sphaerotheca test (cucumber) / protective; type: in vivo; details: Podosphaera fuliginea, 168 h, 100ppm active ingredient, evaluated 7 days after inoculation, 0 % = control, 100 % = no infestation, read-out: Wirkungsgrad
Excerpt: as §1
as §3, with “von Sphaerotheca fuliginea” for “des Apfelmehltauerregers Podosphaera leucotricha”, “dann” for “dann im Gewächshaus”, “70% im Gewächshaus” for “70%”
7 Tage nach der Inokulation erfolgt die Auswertung. Dabei bedeutet 0% ein Wirkungsgrad, der demjenigen der Kontrolle entspricht, während ein Wirkungsgrad von 100% bedeutet, daß kein Befall beobachtet wird.

[3] = pH 2, pH 2,3, read-out: log P (pH 2,3)
[4] = pH 2.3, acidic, read-out: logP sauer

Cc1cc(Oc2ccc(Cl)c(Cl)c2)c(C)cc1N [4-(3,4-Dichlorphenoxy)-2,5-dimethylanilin]
logD [1, 3]: 3.51

Cc1cc([N+](=O)[O-])c(C)cc1Oc1ccc(Cl)c(Cl)c1 [4-(3,4-Dichlorphenoxy)-2,5-dimethylnitrobenzol]
logD [1, 3]: 5.19

CCN(C)C=Nc1cc(C)c(Oc2ccc(F)c(F)c2)cc1C [Nr. 2]
logP ([1]; neutral): 6.2 | logD [1, 4]: 2.37

CCN(C)C=Nc1cc(C)c(Oc2cc(F)cc(Br)c2)cc1C [Nr. 3]
Wirkungsgrad (Uromyces appendiculatus): ≥ 70% | logP ([1]; neutral): 5.8 | logD [1, 4]: 2.29 | Wirkungsgrad (Leptosphaeria nodorum): ≥ 70% | pest or weed control at 500 ppm [2]: ≥ 70% | pest or weed control at 100 ppm (Podosphaera leucotricha): ≥ 70% | pest or weed control at 1000 ppm (Puccinia recondita): ≥ 70% | pest or weed control at 100 ppm (Sphaerotheca fuliginea): ≥ 70%

CCN(C)C=Nc1cc(C)c(Oc2cc(Br)cc(Br)c2)cc1C [Nr. 4]
logP ([1]; neutral): 6 | logD [1, 4]: 2.5 | pest or weed control at 500 ppm [2]: ≥ 70% | pest or weed control at 100 ppm (Podosphaera leucotricha): ≥ 70% | pest or weed control at 1000 ppm (Puccinia recondita): ≥ 70% | pest or weed control at 100 ppm (Sphaerotheca fuliginea): ≥ 70%

Cc1cc(Oc2cc(Br)cc(Br)c2)c(C)cc1N=CN(C)C(C)C [Nr. 5]
logP ([1]; neutral): 6.4 | logD [1, 4]: 2.62 | pest or weed control at 500 ppm [2]: ≥ 70% | pest or weed control at 1000 ppm (Puccinia recondita): ≥ 70%

CCN(C)C=Nc1cc(C)c(Oc2cc(Cl)cc(Br)c2)cc1C [Nr. 6]
logP ([1]; neutral): 6.4 | logD [1, 4]: 2.56 | pest or weed control at 500 ppm [2]: ≥ 70% | pest or weed control at 100 ppm (Podosphaera leucotricha): ≥ 70% | pest or weed control at 1000 ppm (Puccinia recondita): ≥ 70% | pest or weed control at 100 ppm (Sphaerotheca fuliginea): ≥ 70%

Cc1cc(Oc2cc(Cl)cc(Br)c2)c(C)cc1N=CN(C)C(C)C [Nr. 7]
Wirkungsgrad (Uromyces appendiculatus): ≥ 70% | logP ([1]; neutral): 6.8 | logD [1, 4]: 2.7 | pest or weed control at 500 ppm [2]: ≥ 70% | pest or weed control at 100 ppm (Podosphaera leucotricha): ≥ 70% | pest or weed control at 1000 ppm (Puccinia recondita): ≥ 70% | pest or weed control at 100 ppm (Sphaerotheca fuliginea): ≥ 70%

CCN(C)C=Nc1cc(C)c(Oc2cc(F)cc(Cl)c2)cc1C [Nr. 8]
logP ([1]; neutral): 5.6 | logD [1, 4]: 2.21 | pest or weed control at 500 ppm [2]: ≥ 70% | pest or weed control at 1000 ppm (Puccinia recondita): ≥ 70%

Cc1cc(Oc2cc(F)cc(Cl)c2)c(C)cc1N=CN1CCCCC1 [Nr. 9]
logP ([1]; neutral): 6.3 | logD [1, 4]: 2.42 | pest or weed control at 500 ppm [2]: ≥ 70% | pest or weed control at 100 ppm (Podosphaera leucotricha): ≥ 70% | pest or weed control at 1000 ppm (Puccinia recondita): ≥ 70% | pest or weed control at 100 ppm (Sphaerotheca fuliginea): ≥ 70%

Cc1cc(Oc2cc(F)cc(Cl)c2)c(C)cc1N=CN1CCCC1 [Nr. 10]
logP ([1]; neutral): 5.6 | logD [1, 4]: 2.26

CCCN(C)C=Nc1cc(C)c(Oc2cc(F)cc(Cl)c2)cc1C [Nr. 11]
logP ([1]; neutral): 6.1 | logD [1, 4]: 2.39 | pest or weed control at 500 ppm [2]: ≥ 70% | pest or weed control at 100 ppm (Podosphaera leucotricha): ≥ 70% | pest or weed control at 1000 ppm (Puccinia recondita): ≥ 70% | pest or weed control at 100 ppm (Sphaerotheca fuliginea): ≥ 70%

Cc1cc(Oc2cc(F)cc(Br)c2)c(C)cc1N=CN1CCCCC1 [Nr. 12]
logP ([1]; neutral): 6.5 | logD [1, 4]: 2.55 | pest or weed control at 500 ppm [2]: ≥ 70% | pest or weed control at 1000 ppm (Puccinia recondita): ≥ 70%

Cc1cc(Oc2cc(F)cc(Br)c2)c(C)cc1N=CN1CCCC1 [Nr. 13]
logP ([1]; neutral): 5.7 | logD [1, 4]: 2.37 | pest or weed control at 500 ppm [2]: ≥ 70% | pest or weed control at 1000 ppm (Puccinia recondita): ≥ 70%

CCCN(C)C=Nc1cc(C)c(Oc2cc(F)cc(Br)c2)cc1C [Nr. 14]
logP ([1]; neutral): 7.4 | logD [1, 4]: 2.37 | pest or weed control at 500 ppm [2]: ≥ 70% | pest or weed control at 1000 ppm (Puccinia recondita): ≥ 70%

CCN(C)C=Nc1cc(C)c(Oc2ccc(Cl)c(Br)c2)cc1C [Nr. 15]
logP ([1]; neutral): 6.1 | logD [1, 4]: 2.23 | Wirkungsgrad (Leptosphaeria nodorum): ≥ 70% | pest or weed control at 1000 ppm (Puccinia recondita): ≥ 70%

Cc1cc(Oc2ccc(Cl)c(Br)c2)c(C)cc1N=CN1CCCCC1 [Nr. 16]
logP ([1]; neutral): 6.9 | logD [1, 4]: 2.66 | pest or weed control at 1000 ppm (Puccinia recondita): ≥ 70%

CCCN(C)C=Nc1cc(C)c(Oc2ccc(Cl)c(Br)c2)cc1C [Nr. 17]
logP ([1]; neutral): 6.6 | logD [1, 4]: 2.64

Cc1cc(Oc2ccc(Cl)c(Br)c2)c(C)cc1N=CN1CCCC1 [Nr. 18]
logP ([1]; neutral): 6.6 | logD [1, 4]: 2.56

CCN(C)C=Nc1cc(C)c(Oc2cc(F)cc(I)c2)cc1C [Nr. 19]
logD [1, 4]: 2.4 | pest or weed control at 1000 ppm (Puccinia recondita): ≥ 70%

CCCN(C)C=Nc1cc(C)c(Oc2cc(F)cc(I)c2)cc1C [Nr. 20]
logP ([1]; neutral): 6.6 | logD [1, 4]: 2.61

Cc1cc(Oc2cc(F)cc(I)c2)c(C)cc1N=CN1CCCCC1 [Nr. 21]
logP ([1]; neutral): 6.8 | logD [1, 4]: 2.6 | Wirkungsgrad (Leptosphaeria nodorum): ≥ 70% | pest or weed control at 1000 ppm (Puccinia recondita): ≥ 70%

Cc1cc(Oc2cc(F)cc(I)c2)c(C)cc1N=CN1CCCC1 [Nr. 22]
logP ([1]; neutral): 6.6 | logD [1, 4]: 2.46

CCN(C)C=Nc1cc(C)c(Oc2ccc(F)c(Br)c2)cc1C [Nr. 23]
Wirkungsgrad (Uromyces appendiculatus): ≥ 70% | logP ([1]; neutral): 5.7 | logD [1, 4]: 2.29 | pest or weed control at 1000 ppm (Puccinia recondita): ≥ 70% | pest or weed control at 100 ppm (Sphaerotheca fuliginea): ≥ 70%

Cc1cc(Oc2ccc(Cl)c(I)c2)c(C)cc1N=CN(C)C(C)C [Nr. 24]
Wirkungsgrad (Uromyces appendiculatus): ≥ 70% | logP ([1]; neutral): 6.2 | logD [1, 4]: 2.4 | Wirkungsgrad (Leptosphaeria nodorum): ≥ 70% | pest or weed control at 100 ppm (Podosphaera leucotricha): ≥ 70% | pest or weed control at 1000 ppm (Puccinia recondita): ≥ 70% | pest or weed control at 100 ppm (Sphaerotheca fuliginea): ≥ 70%

CCN(C)C=Nc1cc(C)c(Oc2ccc(Cl)c(I)c2)cc1C [Nr. 25]
logD [1, 4]: 2.29 | Wirkungsgrad (Leptosphaeria nodorum): ≥ 70% | pest or weed control at 100 ppm (Podosphaera leucotricha): ≥ 70% | pest or weed control at 1000 ppm (Puccinia recondita): ≥ 70%

Cc1cc(Oc2ccc(Cl)c(I)c2)c(C)cc1N=CN1CCCCC1 [Nr. 26]
logD [1, 4]: 2.52 | Wirkungsgrad (Leptosphaeria nodorum): ≥ 70%

CCN(C)C=Nc1cc(C)c(Oc2ccc(Br)c(I)c2)cc1C [Nr. 27]
logP ([1]; neutral): 6.1 | logD [1, 4]: 2.67 | Wirkungsgrad (Leptosphaeria nodorum): ≥ 70%

CCCN(C)C=Nc1cc(C)c(Oc2cc(F)cc(Br)c2)cc1C [Nr. 28]
logP sauer ([1]; acidic): 2,91 | logP neutr. ([1]; neutral): 6,9

Cc1cc(Oc2cc(F)cc(Br)c2)c(C)cc1N=CN1CC(C)OC(C)C1 (stereo not shown) [Nr. 29]
logP ([1]; neutral): 5.8 | logD [1, 4]: 2.59

CCN(C)C=Nc1cc(C)c(Oc2ccc(Cl)c(Cl)c2)cc1C [Nr. 30, N-Ethyl-N-methyl-N'-[4-(3,4-dichlorphenoxy)-2,5-dimethylphenyl]formamidin]
logD [1, 3]: 2.48

— EP1969933A1, “Di-halogen phenoxy phenylamidines and their use as fungicides” (Bayer CropScience AG, priority 2007, dated 2008)
